In patent US5871946A, “Method for determining activity of enzymes in metabolically active whole cells” (priority 1995, dated 1999):
Numbered stars: 1 amine (or outer) side, 2 acyl side, 3 side chain; on linkers, the order of the positions; unused ones are H or OH. Bridge positions count the residues as written; N and C are the ends. Peptide text beside a SMILES is read from it. I, II: the chains in the order shown. Rhodamine110 = O=C1OC2(c3ccc(N[*:1])cc3Oc3cc(N[*:2])ccc32)c2ccccc21

Experiments:
LYMPHOCYTES = test: Disease to normal ratio of enzyme activity, lymphocytes (Table 5); assay type: cell-based, human
Excerpt: (§1) A normal in house adult donor pool was drawn, recording sex and determining that no known disease state was present at the time of sample draw. Criteria for rejecting samples included patients under medication, patients with infection or inflammation of any type, colds and flu as well as any known medical illness such as cancer, heart ailment and high blood pressure. A donor list of 75 patients has been developed and a mean and 2 sd range established. A subgroup of "super normals" was developed from this list by examining the 75 patients to determine which group falls closest to the mean for all enzymes in all cell types tested. These patients were used as the "wellness index" or best group of "normalcy" patients. If a study required the use of children or newborns then this same format was used to develop a data base for these age groups.

MONOCYTES = test: Disease to normal ratio of enzyme activity, monocytes (Table 5); assay type: cell-based, human
Excerpt: as §1

[1] = Inflam. Bowel Dis., monocytes section

| SMILES | Ratio of disease to normal (LYMPHOCYTES; Dermatomyositis) | Ratio of disease to normal (LYMPHOCYTES; Inflam. Bowel Dis.) | Ratio of disease to normal (LYMPHOCYTES; JRA) | Ratio of disease to normal (LYMPHOCYTES; Kawasaki's) | Ratio of disease to normal (LYMPHOCYTES; Lupus) | Ratio of disease to normal (LYMPHOCYTES; Rheumatic Fever) | Ratio of disease to normal (MONOCYTES; Dermatomyositis, monocytes) | Ratio of disease to normal (MONOCYTES; JRA, monocytes) | Ratio of disease to normal (MONOCYTES; Kawasaki's, monocytes) | Ratio of disease to normal (MONOCYTES; Lupus, monocytes) | Ratio of disease to normal (MONOCYTES; Rheumatic Fever, monocytes) | Ratio of disease to normal (MONOCYTES; [1]) |
| --- | --- | --- | --- | --- | --- | --- | --- | --- | --- | --- | --- | --- |
| C[C@H](NC(=O)[C@@H](N)CCCCN)C(=O)Nc1ccc2c(c1)Oc1cc(NC(=O)[C@H](C)NC(=O)[C@@H](N)CCCCN)ccc1C21OC(=O)c2ccccc21 [KA-M, (Lys-Ala)2 Rho 110] | 1.93 | 1.63 | 1.46 | 1.32 | 1.06 | 2.07 | 1.55 | 12.14 | 7.08 | 14.08 | 15.36 |  |
| N=C(N)NCCC[C@H](N)C(=O)NCC(=O)N[C@@H](CCC(=O)O)C(=O)N[C@@H](CO)C(=O)Nc1ccc2c(c1)Oc1cc(NC(=O)[C@H](CO)NC(=O)[C@H](CCC(=O)O)NC(=O)CNC(=O)[C@@H](N)CCCNC(=N)N)ccc1C21OC(=O)c2ccccc21 (stereo partly drawn) [RGES, (Arg-Gly-Glu-Ser)2 Rho 110] (I: H-RGES / II: H-RGES; linker I:C-II:C via Rhodamine110) | 2.06 | 1.96 | 1.43 | 1.43 | 1.84 | 2.04 | 5.22 | 3.98 | 4.65 | 3.03 | 6.52 | 6.02 |
| CC(C)[C@H](N)C(=O)N[C@@H](CCCCN)C(=O)Nc1ccc2c(c1)Oc1cc(NC(=O)[C@H](CCCCN)NC(=O)[C@@H](N)C(C)C)ccc1C21OC(=O)c2ccccc21 [VK, (Val-Lys)2 Rho 110] | 1.39 | 1.08 |  | 1.19 | 1.25 |  | 1.42 | 5.94 | 5.38 | 1.64 | 1.32 | 3.08 |
| CC(C)[C@H](N)C(=O)N[C@@H](CCCCN)C(=O)Nc1ccc2c(c1)Oc1cc(NC(=O)[C@H](CCCCN)NC(=O)[C@@H](N)C(C)C)ccc1C21OC(=O)c2ccccc21 [VK-M, (Val-Lys)2 Rho 110 (modified)] |  |  | 7.71 |  |  |  | 3.45 | 3.49 |  | 11.37 | 8.67 | 1.41 |
| O=C(NCC(=O)N1CCC[C@H]1C(=O)Nc1ccc2c(c1)Oc1cc(NC(=O)[C@@H]3CCCN3C(=O)CNC(=O)OCc3ccccc3)ccc1C21OC(=O)c2ccccc21)OCc1ccccc1 [Z-GP, (carbobenzyloxycarbonyl-Gly-Pro)2 Rho 110] | 1.73 | 1.73 | 1.29 |  | 1.93 | 3.23 |  | 1.34 | 4.06 | 1.88 | 3.56 | 1.64 |
| O=C(NCC(=O)N1CCC[C@H]1C(=O)Nc1ccc2c(c1)Oc1cc(NC(=O)[C@@H]3CCCN3C(=O)CNC(=O)OCc3ccccc3)ccc1C21OC(=O)c2ccccc21)OCc1ccccc1 [Z-GP-M, (carbobenzyloxycarbonyl-Gly-Pro)2 Rho 110 (modified)] | 3.45 |  |  | 3.44 | 2.09 | 4.09 | 3.05 | 1.79 | 4.47 | 1.92 | 2.99 | 3.33 |
| C[C@@H](O)[C@H](NC(=O)OCc1ccccc1)C(=O)N1CCC[C@H]1C(=O)Nc1ccc2c(c1)Oc1cc(NC(=O)[C@@H]3CCCN3C(=O)[C@@H](NC(=O)OCc3ccccc3)[C@@H](C)O)ccc1C21OC(=O)c2ccccc21 [Z-TP6.5, (carbobenzyloxycarbonyl-Thr-Pro)2 Rho 110 (pH 6.5)] | 3.87 | 3.03 | 2.89 | 5.85 |  | 7.19 | 3.12 | 8.33 |  | 2.29 | 5.37 | 2.83 |
